Each structure is given as a SMILES string.

Chain of ALK (Q9UM73 19-1620): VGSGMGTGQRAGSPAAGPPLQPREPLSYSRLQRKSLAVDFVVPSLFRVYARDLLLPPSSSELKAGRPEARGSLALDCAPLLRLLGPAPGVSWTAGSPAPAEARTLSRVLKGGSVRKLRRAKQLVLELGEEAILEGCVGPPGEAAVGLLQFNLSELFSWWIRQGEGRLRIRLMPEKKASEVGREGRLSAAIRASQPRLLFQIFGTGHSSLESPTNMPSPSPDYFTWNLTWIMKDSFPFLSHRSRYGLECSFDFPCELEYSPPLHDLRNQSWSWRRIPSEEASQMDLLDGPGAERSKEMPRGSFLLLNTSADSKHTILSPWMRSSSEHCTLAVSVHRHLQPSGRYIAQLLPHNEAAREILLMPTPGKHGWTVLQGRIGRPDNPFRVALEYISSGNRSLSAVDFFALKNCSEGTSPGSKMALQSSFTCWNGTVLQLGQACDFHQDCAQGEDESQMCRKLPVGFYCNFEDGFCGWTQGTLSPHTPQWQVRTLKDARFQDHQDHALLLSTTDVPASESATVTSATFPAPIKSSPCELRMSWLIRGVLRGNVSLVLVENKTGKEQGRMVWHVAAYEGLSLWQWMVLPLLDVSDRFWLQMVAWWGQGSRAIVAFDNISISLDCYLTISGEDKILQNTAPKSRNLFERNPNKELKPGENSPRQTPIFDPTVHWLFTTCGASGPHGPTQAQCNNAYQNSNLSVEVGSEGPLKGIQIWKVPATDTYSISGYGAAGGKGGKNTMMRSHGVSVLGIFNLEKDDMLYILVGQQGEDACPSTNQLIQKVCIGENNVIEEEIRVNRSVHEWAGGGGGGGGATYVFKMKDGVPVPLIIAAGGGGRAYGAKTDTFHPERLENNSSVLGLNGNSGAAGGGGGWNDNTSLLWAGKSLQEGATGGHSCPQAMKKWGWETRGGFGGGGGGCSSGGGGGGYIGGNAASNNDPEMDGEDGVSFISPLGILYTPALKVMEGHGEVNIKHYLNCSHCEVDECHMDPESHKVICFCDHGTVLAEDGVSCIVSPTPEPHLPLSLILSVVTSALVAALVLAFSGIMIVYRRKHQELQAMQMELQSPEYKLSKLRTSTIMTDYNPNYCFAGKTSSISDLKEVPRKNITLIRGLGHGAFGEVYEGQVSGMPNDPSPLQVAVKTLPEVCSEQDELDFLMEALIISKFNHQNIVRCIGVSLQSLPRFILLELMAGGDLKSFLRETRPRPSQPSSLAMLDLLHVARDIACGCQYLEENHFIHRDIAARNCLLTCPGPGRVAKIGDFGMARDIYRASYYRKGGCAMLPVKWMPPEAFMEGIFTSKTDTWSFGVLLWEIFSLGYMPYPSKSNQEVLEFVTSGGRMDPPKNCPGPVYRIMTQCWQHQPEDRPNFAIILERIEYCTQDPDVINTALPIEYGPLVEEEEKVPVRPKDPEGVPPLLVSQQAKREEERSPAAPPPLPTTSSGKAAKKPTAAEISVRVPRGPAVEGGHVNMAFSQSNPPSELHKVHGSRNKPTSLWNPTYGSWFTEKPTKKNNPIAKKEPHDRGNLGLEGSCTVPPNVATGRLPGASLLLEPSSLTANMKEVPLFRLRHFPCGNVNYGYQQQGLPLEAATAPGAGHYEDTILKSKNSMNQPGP

For the test, the target named is ALK (Homo sapiens, UniProt Q9UM73). In words: ALK enzyme assay (HTRF). In kind it is biochemical. The note with it: 0.25 nM ALK, 15.0 μM ATP, values given as pIC50 category. Here is the method:
The method measures the ability of the isolated enzyme to catalyse the transfer of the gamma-phosphate from ATP onto the tyrosine residue of a biotinylated synthetic peptide. The extent of tyrosine phosphorylation was measured using an anti-phosphotyrosine antibody, and quantified by homogenous time-resolved fluorescence (HTRF) assay purchased from CisBio (62TK0PEJ).
Reactions were performed in black 384-well polystyrene low volume plates in a final volume of 5 μl.
The reactions were then started by adding the substrate mix. The reactions were allowed to proceed for 120 minutes at 20° C. The reactions were then terminated by the addition of 5 μl HTRF detection mix to each well. The final concentrations of the detection reagents were: 50 mM HEPES (pH7.0); 0.1% BSA; 0.8 M KF; 20 mM EDTA; 1 mM CHAPS; TK-antibody Europium Cryptate; and 41 nM streptavidin-XL665. Assay plates were left unsealed, stacked and incubated at 20° for 60 minutes. Quantification of activity was achieved by counting in an Envision Counter (PerkinElmer).
Compounds under analysis were dissolved in Me2SO to 1.0 mM and serially diluted 1 to 3 with Me2SO through twelve dilutions. 0.05 μl of each concentration was transferred to the corresponding well of an assay plate. This creates a final compound concentration range from 0.00017 to 10 μM.
The data for dose responses were plotted as % Inhibition calculated with the data reduction formula 100*(1-(U1-C2)/(C1-C2)) versus concentration of compound where U is the unknown value, C1 is the average control value obtained for 1% DMSO, and C2 is the average control value obtained for 0.1 M EDTA. Data were fitted with a curve described by:
[formula] where A is the minimum y, B is the maximum y concentration [M], D is the slope factor, and x is the log10 of the compound.
For orientation: TR-FRET usually uses a lanthanide donor and a delayed reading to cut background.
Consider `COc1cc2c(cc1Nc1nc(Nc3cccc(F)c3C(N)=O)c3cc[nH]c3n1)N(C(=O)CN1CCC(O)C1)CC2` (stereo not drawn) [Example 181, 2-fluoro-6-[(2-{[1-[(3-hydroxy-1-pyrrolidinyl)acetyl]-5-(methyloxy)-2,3-dihydro-1H-indol-6-yl]amino}-1H-pyrrolo[2,3-d]pyrimidin-4-yl)amino]benzamide], for which the IC50 is 1.26 to 3.98 nM.

`CNC(=O)c1c(F)cccc1Nc1nc(Nc2cc3c(cc2OC)CCN3C(=O)CN2CCC(O)C2)nc2[nH]ccc12` (stereo not drawn) [Example 182, 2-fluoro-6-[(2-{[1-[(3-hydroxy-1-pyrrolidinyl)acetyl]-5-(methyloxy)-2,3-dihydro-1H-indol-6-yl]amino}-1H-pyrrolo[2,3-d]pyrimidin-4-yl)amino]-N-methylbenzamide] gave an IC50 of 0.251 to 1 nM.

Molecule `COc1cc2c(cc1Nc1nc(Nc3cccc(F)c3C(N)=O)c3cc[nH]c3n1)N(C(=O)CN1CCCC(O)C1)CC2` (stereo not drawn) [Example 183, 2-fluoro-6-[(2-{[1-[(3-hydroxy-1-piperidinyl)acetyl]-5-(methyloxy)-2,3-dihydro-1H-indol-6-yl]amino}-1H-pyrrolo[2,3-d]pyrimidin-4-yl)amino]benzamide] showed an IC50 of 0.251 to 1 nM.

`CNC(=O)c1c(F)cccc1Nc1nc(Nc2cc3c(cc2OC)CCN3C(=O)CN2CCCC(O)C2)nc2[nH]ccc12` (stereo not drawn) [Example 184, 2-fluoro-6-[(2-{[1-[(3-hydroxy-1-piperidinyl)acetyl]-5-(methyloxy)-2,3-dihydro-1H-indol-6-yl]amino}-1H-pyrrolo[2,3-d]pyrimidin-4-yl)amino]-N-methylbenzamide] showed an IC50 of 1.26 to 3.98 nM.

As for `COc1cc2c(cc1Nc1nc(Nc3ccccc3C(N)=O)c3cc[nH]c3n1)N(C(=O)CN(C)C)CC2` [Example 240, 2-[(2-{[1-(N,N-dimethylglycyl)-5-(methyloxy)-2,3-dihydro-1H-indol-6-yl]amino}-1H-pyrrolo[2,3-d]pyrimidin-4-yl)amino]benzamide], the IC50 was 0.251 to 1 nM.

Take `CNC(=O)c1ccccc1Nc1nc(Nc2cc3c(cc2OC)CCN3C(=O)CN(C)C)nc2[nH]ccc12` [Example 241, 2-[(2-{[1-(N,N-dimethylglycyl)-5-(methyloxy)-2,3-dihydro-1H-indol-6-yl]amino}-1H-pyrrolo[2,3-d]pyrimidin-4-yl)amino]-N-methylbenzamide]: the IC50 was 5.01 to 200 nM.

In general, IC50 refers to the concentration needed to halve the response being measured. High values mean weaker potency in that assay, low ones greater potency in that assay.

Values taken from patent US7981903B2, “2-[2-{phenylamino}-1H-pyrrolo[2,3-D]pyrimidin-4-yl)amino] benzamide derivatives as IGF-1R inhibitors for the treatment of cancer” (GlaxoSmithKline LLC, priority 2007, dated 2011).
